The values below come from ChEMBL document CHEMBL5143649, “Broad-spectrum cyclic boronate β-lactamase inhibitors featuring an intramolecular prodrug for oral bioavailability” (Bioorg Med Chem, 2022).

The subject of one series is Enterobacter cloacae. Put plainly: Potentiation of aztreonam-induced antibacterial activity against Enterobacter cloacae 1002 producing AmpC assessed as concentration required to reduce aztreonam MIC to 4 ug/ml by CLSI based broth microdilution method. It counts as functional.
Series [1] concerns Escherichia coli. Put plainly: Potentiation of aztreonam-induced antibacterial activity against Escherichia coli 302 producing TEM-10 assessed as concentration required to reduce aztreonam MIC to 4 ug/ml by CLSI based broth microdilution method. Type of series: functional.
The test system of series [2] is Klebsiella pneumoniae. Nature of the series: Potentiation of aztreonam-induced antibacterial activity against Klebsiella pneumoniae 1004 producing KPC assessed as concentration required to reduce aztreonam MIC to 4 ug/ml by CLSI based broth microdilution method. Type of series: functional.
Series [3] concerns Escherichia coli. Nature of the series: Potentiation of aztreonam-induced antibacterial activity against Escherichia coli 308 producing SHV-5 assessed as concentration required to reduce aztreonam MIC to 4 ug/ml by CLSI based broth microdilution method. It counts as functional.
Series [4] has as its system Escherichia coli. Nature of the series: Potentiation of aztreonam-induced antibacterial activity against Escherichia coli 1010 producing CMY-6 assessed as concentration required to reduce aztreonam MIC to 4 ug/ml by CLSI based broth microdilution method. It counts as functional.
Series [5] concerns Klebsiella pneumoniae. Nature of the series: Potentiation of aztreonam-induced antibacterial activity against Klebsiella pneumoniae 1009 producing class A CTX-M-14 assessed as concentration required to reduce aztreonam MIC to 4 ug/ml by CLSI based broth microdilution method. Type of series: functional.
Series [6] can be described thus: Oral bioavailability in rat. Conditions: in vivo. It counts as ADME, organism-based.
Series [7] is described as follows: AUC in rat at 30 mg/kg, po measured upto 24 hrs by HPLC-MS analysis. It counts as ADME, organism-based. Details: dose 30 mg/kg, time < 24 hrs, route po. Conditions: in vivo.
A short description of series [8]: AUC in rat at 100 mg/kg administered as iv infusion for 0.5 hrs and measured upto 24 hrs by HPLC-MS analysis. Type of series: ADME, organism-based. Set-up: dose 100 mg/kg, time < 24.5 hrs, route iv. Conditions: in vivo.
The nature of series [9]: AUC in rat at 300 mg/kg administered as iv infusion for 0.5 hrs and measured upto 24 hrs by HPLC-MS analysis. Type of series: ADME, organism-based. Set-up: time < 24.5 hrs, dose 300 mg/kg, route iv. Conditions: in vivo.
Series [10] can be described thus: Oral bioavailability in rat at 30 mg/kg measured upto 24 hrs by HPLC-MS analysis. It counts as ADME, organism-based. Conditions: in vivo.
The nature of series [11]: AUC in rat at 30 mg/kg administered as iv infusion for 0.5 hrs and measured upto 24 hrs by HPLC-MS analysis. It counts as ADME, organism-based. Details: time < 24.5 hrs, dose 30 mg/kg, route iv. Conditions: in vivo.
Series [12] in a line: AUC in rat at 300 mg/kg, po measured upto 24 hrs by HPLC-MS analysis. It counts as ADME, organism-based. Set-up: dose 300 mg/kg, time < 24 hrs, route po. Conditions: in vivo.
A short description of series [13]: Oral bioavailability in rat at 100 mg/kg measured upto 24 hrs by HPLC-MS analysis. It counts as ADME, organism-based. Conditions: in vivo.
A short description of series [14]: AUC in rat at 100 mg/kg, po measured upto 24 hrs by HPLC-MS analysis. Type of series: ADME, organism-based. Conditions: in vivo. Set-up: time < 24 hrs, dose 100 mg/kg, route po.
Series [15] is described as follows: Oral bioavailability in rat at 300 mg/kg measured upto 24 hrs by HPLC-MS analysis. Type of series: ADME, organism-based. Conditions: in vivo.
Series [16] concerns Klebsiella pneumoniae. Put plainly: microbe, parasite or virus in culture. Conditions: 1004.
For series [17], the system named is Klebsiella pneumoniae. Put plainly: microbe, parasite or virus in culture. Conditions: 1009.
For series [18], the system named is Escherichia coli. Nature of the series: microbe, parasite or virus in culture. Conditions: 1010.
The test system of series [19] is Escherichia coli. Put plainly: microbe, parasite or virus in culture. Conditions: 308.
Series [20] concerns Escherichia coli. Put plainly: microbe, parasite or virus in culture. Conditions: 302.

`O=C(O)C[C@H]1C=CC[C@H](NC(=O)Cc2cccs2)B(O)O1`: the EC turned out to be 2.5 µg/mL in the series on Enterobacter cloacae; 5 µg/mL with Escherichia coli [1]; 10 µg/mL with Klebsiella pneumoniae [2]; 1.25 µg/mL with Escherichia coli [3]; 10 µg/mL with Escherichia coli [4]; 5 µg/mL in the series with Klebsiella pneumoniae [5].
With `O=C(O)CC1C=CC[C@H](NC(=O)Cc2cccs2)B(O)O1` (stereo partly drawn), the EC came out at 10 µg/mL in the series on Enterobacter cloacae; 10 µg/mL in the series on Escherichia coli [1]; 20 µg/mL in the series on Klebsiella pneumoniae [2]; 2.5 µg/mL in the series on Escherichia coli [3]; 20 µg/mL with Escherichia coli [4]; 10 µg/mL in the series with Klebsiella pneumoniae [5].
In turn, `O=C(Cc1cccs1)N[C@H]1CC=C[C@@H]2CC(=O)OB1O2` yielded a bioavailability in series [6] of 48%.
Take `Nc1nnc(SCC(=O)N[C@H]2CC=C[C@H](CC(=O)O)OB2O)s1`: the EC amounted to 0.6 µg/mL in the series on Enterobacter cloacae; 5 µg/mL with Escherichia coli [1]; 5 µg/mL in the series on Klebsiella pneumoniae [2]; 1.25 µg/mL in the series with Escherichia coli [3]; 1.25 µg/mL with Escherichia coli [4]; 2.5 µg/mL in the series with Klebsiella pneumoniae [5].
For `COC(=O)N1CC(CC(=O)O)OB(O)[C@@H](NC(=O)Cc2cccs2)C1` (stereo partly drawn), the EC with Escherichia coli [1] worked out at 20 µg/mL; with Klebsiella pneumoniae [2], 40 µg/mL; in the series with Escherichia coli [3] it was 2.5 µg/mL; with Escherichia coli [4] it was 20 µg/mL; in the series on Klebsiella pneumoniae [5], 10 µg/mL.
As to `O=C(O)CC1CCC[C@H](NC(=O)Cc2cccs2)B(O)O1` (stereo partly drawn), the EC in the series on Enterobacter cloacae is 10 µg/mL; in the series with Escherichia coli [1], >40 µg/mL; with Klebsiella pneumoniae [2], 20 µg/mL; in the series on Escherichia coli [3], 10 µg/mL; in the series on Escherichia coli [4], 10 µg/mL; with Klebsiella pneumoniae [5], 10 µg/mL.
With `O=C(O)C[C@@H]1C=CC[C@H](NC(=O)Cc2cccs2)B(O)O1`, the EC is 10 µg/mL in the series on Enterobacter cloacae; >40 µg/mL in the series on Escherichia coli [1]; 40 µg/mL in the series with Klebsiella pneumoniae [2]; 10 µg/mL in the series on Escherichia coli [3]; 40 µg/mL with Escherichia coli [4]; 20 µg/mL in the series on Klebsiella pneumoniae [5].
For `CSCC(=O)N[C@H]1CC=C[C@H](CC(=O)O)OB1O`, the EC in the series with Enterobacter cloacae came out at 1.25 µg/mL; with Escherichia coli [1], 5 µg/mL; in the series on Klebsiella pneumoniae [2] it was 10 µg/mL; in the series on Escherichia coli [3] it was 1.25 µg/mL; in the series on Escherichia coli [4] it was 5 µg/mL; in the series with Klebsiella pneumoniae [5] it was 2.5 µg/mL.
Take `CC(=O)N1CC(CC(=O)O)OB(O)[C@@H](NC(=O)Cc2cccs2)C1` (stereo partly drawn): the EC is 20 µg/mL with Enterobacter cloacae; 20 µg/mL in the series on Escherichia coli [1]; 40 µg/mL in the series with Klebsiella pneumoniae [2]; 1.25 µg/mL in the series on Escherichia coli [3]; 10 µg/mL in the series on Escherichia coli [4]; 5 µg/mL in the series with Klebsiella pneumoniae [5].
`CSCC(=O)N[C@H]1CC=C[C@H](CC(=O)[O-])OB1O.[Na+]` registered an AUC at 24 h in series [7] of 2600 ng·h/mL. Moreover, the area under the curve (AUC) at 24.5 h was determined as 79400 ng·h/mL in [8], 276000 ng·h/mL in [9] and 28100 ng·h/mL in series [11]. Further, in [10], the bioavailability came out at 9.3%.
With `O=C(O)C[C@H]1C=CC[C@H](NC(=O)c2cccnc2)B(O)O1`, the EC was determined as 1.25 µg/mL with Enterobacter cloacae; 1.25 µg/mL with Escherichia coli [1]; 10 µg/mL in the series with Klebsiella pneumoniae [2]; 2.5 µg/mL with Escherichia coli [3]; 1.25 µg/mL in the series with Escherichia coli [4]; 5 µg/mL in the series with Klebsiella pneumoniae [5].
In the case of `CSCC(=O)N[C@H]1CC=C[C@@H]2CC(=O)OB1O2`, the values for the AUC at 24 h in series [7], in series [12] and in [14] were 14600 ng·h/mL, 179000 ng·h/mL and 55000 ng·h/mL, respectively. Also, the bioavailability in series [13] came out at 69.3%; in series [10], 52%; in [15], 64.9%.
As to `O=C(O)CC1COC[C@H](NC(=O)Cc2cccs2)B(O)O1` (stereo partly drawn), the EC in the series on Enterobacter cloacae turned out to be 10 µg/mL; in the series with Escherichia coli [1], 20 µg/mL; in the series on Klebsiella pneumoniae [2], 40 µg/mL; in the series on Escherichia coli [3], 5 µg/mL; in the series on Escherichia coli [4], 10 µg/mL; in the series with Klebsiella pneumoniae [5], 5 µg/mL.
For the compound `C[C@H]1[C@H](NC(=O)/C(=N\OC(C)(C)C(=O)O)c2csc(N)n2)C(=O)N1S(=O)(=O)O` [AZTREONAM], the MIC against Klebsiella pneumoniae [16], in the series on Klebsiella pneumoniae [17], in the series on Escherichia coli [18], in the series with Escherichia coli [19] and in the series with Escherichia coli [20] was > 64 µg/mL throughout.
With `O=C(O)C[C@@H]1CC[C@H](NC(=O)Cc2cccs2)B(O)O1` [VABORBACTAM], the EC is 20 µg/mL with Enterobacter cloacae; >40 µg/mL in the series on Escherichia coli [1]; 1.25 µg/mL in the series with Klebsiella pneumoniae [2]; >40 µg/mL in the series on Escherichia coli [3]; 20 µg/mL in the series with Escherichia coli [4]; >40 µg/mL with Klebsiella pneumoniae [5]. The bioavailability in [6] is < 10%.
